{"source": "patent US8952020B2", "about": "“Optically active pyrazolylaminoquinazoline, and pharmaceutical compositions and methods of use thereof” (Ambit Biosciences Corp., priority 2010, dated 2015)", "key": {"[1]": {"molecular_target": "CYP2D6 (Homo sapiens, UniProt P10635)", "sequence (P10635 whole entry)": "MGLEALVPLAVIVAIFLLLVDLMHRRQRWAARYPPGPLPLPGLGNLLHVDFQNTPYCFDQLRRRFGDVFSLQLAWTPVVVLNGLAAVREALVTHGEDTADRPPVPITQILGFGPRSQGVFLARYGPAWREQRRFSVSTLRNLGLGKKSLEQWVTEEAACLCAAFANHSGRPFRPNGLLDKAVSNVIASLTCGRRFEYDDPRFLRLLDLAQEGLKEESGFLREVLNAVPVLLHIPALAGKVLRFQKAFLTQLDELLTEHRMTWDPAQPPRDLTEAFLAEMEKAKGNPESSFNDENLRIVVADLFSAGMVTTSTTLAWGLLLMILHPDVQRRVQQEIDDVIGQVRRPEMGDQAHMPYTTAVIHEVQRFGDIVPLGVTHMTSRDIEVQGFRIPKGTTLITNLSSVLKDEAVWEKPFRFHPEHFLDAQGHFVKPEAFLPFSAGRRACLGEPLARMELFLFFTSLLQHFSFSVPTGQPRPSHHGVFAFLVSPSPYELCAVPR", "assay": "CYP450 inhibition in human liver microsomes"}, "[2]": {"molecular_target": "T1, CYP2B6 (Homo sapiens, UniProt P20813)", "T1 sequence (P20813 1-491)": "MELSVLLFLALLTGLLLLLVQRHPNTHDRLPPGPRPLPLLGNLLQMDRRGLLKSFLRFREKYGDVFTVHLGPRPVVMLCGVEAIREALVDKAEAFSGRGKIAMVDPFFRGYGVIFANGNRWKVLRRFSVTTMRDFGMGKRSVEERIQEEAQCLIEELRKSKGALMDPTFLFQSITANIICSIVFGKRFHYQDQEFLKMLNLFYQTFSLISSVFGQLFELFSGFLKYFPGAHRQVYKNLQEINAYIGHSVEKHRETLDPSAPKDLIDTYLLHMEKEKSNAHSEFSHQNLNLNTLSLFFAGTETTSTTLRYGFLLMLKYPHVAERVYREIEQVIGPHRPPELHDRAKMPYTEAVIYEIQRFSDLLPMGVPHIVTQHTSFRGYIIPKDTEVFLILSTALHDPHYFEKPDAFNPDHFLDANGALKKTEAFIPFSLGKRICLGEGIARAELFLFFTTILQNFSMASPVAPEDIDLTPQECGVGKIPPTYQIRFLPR", "assay": "CYP450 inhibition in human liver microsomes"}, "[3]": {"conditions": "cynomolgus monkey, in vivo", "quoted_text": "(§1) Three male cynomolgus monkeys were fasted overnight and through four hours postdose. Two 100 μL aliquots of each dosing formulation were taken predose. Three monkeys were given a single gavage dose of a test compound at 10 mg/kg, followed by an approximately 10.0 mL tap water flush of the gavage tube. After a 1 week washout period, two of the three monkeys received a single IV bolus dose of a test compound at 1 mg/kg in a peripheral vein followed by approximate 1.0 mL saline flush."}, "[4]": {"tested_on": "GM-CSFR/JAK2/STAT5 pathway in csTF-1 cells", "assay": "csTF-1 cell-based reporter assay", "conditions": "Homo sapiens, GM-CSF at 2 ng/mL, beta-lactamase reporter, read-out: EC50, inhibition of GM-CSF stimulated reporter activity", "procedure": "After 16 hr incubation, cells were seeded at 2×10^5 cell/well in 50 μL volume, into Costar, clear bottom, 96-well assay plates. Serial dilutions of compounds were added to the plates with final DMSO concentration at 0.5% and GM-CSF at 2 ng/mL and the plates were then incubated at 30° C. and 5% CO2 for 4 hrs. The plates were brought to room temperature before adding Substrate Mixture according to manufacturer's protocol (Invitrogen, Catalog #K1085). The assay plates containing the substrate mixture were incubated in the dark at room temperature for 2 hrs. Blue and green fluorescence were measured with excitation at 409 nm and emission at 460 nm (for blue) and excitation at 409 nm and emission at 530 nm (for green) using Spectra Max Gemini EM."}, "[5]": {"molecular_target": "T2, CYP2C8 (Homo sapiens, UniProt P10632)", "T2 sequence (P10632 1-490)": "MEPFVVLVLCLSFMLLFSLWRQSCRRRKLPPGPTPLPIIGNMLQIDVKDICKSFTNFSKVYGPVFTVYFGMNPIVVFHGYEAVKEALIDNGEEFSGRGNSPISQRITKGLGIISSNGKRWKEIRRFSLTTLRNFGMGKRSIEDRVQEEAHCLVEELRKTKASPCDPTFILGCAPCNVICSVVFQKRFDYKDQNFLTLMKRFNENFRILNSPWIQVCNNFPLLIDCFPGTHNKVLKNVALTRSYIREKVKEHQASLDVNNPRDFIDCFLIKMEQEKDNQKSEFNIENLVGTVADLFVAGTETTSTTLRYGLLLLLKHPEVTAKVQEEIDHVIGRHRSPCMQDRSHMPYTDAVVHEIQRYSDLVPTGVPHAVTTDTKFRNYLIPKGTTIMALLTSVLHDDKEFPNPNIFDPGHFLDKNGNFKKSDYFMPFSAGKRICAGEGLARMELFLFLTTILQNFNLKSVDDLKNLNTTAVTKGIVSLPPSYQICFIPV", "assay": "CYP450 inhibition in human liver microsomes"}, "[6]": {"assay": "in vivo", "conditions": "male, cynomolgus monkey", "quoted_text": "as §1"}, "[7]": {"molecular_target": "T3, CYP1A2 (Homo sapiens, UniProt P05177)", "T3 sequence (P05177 1-516)": "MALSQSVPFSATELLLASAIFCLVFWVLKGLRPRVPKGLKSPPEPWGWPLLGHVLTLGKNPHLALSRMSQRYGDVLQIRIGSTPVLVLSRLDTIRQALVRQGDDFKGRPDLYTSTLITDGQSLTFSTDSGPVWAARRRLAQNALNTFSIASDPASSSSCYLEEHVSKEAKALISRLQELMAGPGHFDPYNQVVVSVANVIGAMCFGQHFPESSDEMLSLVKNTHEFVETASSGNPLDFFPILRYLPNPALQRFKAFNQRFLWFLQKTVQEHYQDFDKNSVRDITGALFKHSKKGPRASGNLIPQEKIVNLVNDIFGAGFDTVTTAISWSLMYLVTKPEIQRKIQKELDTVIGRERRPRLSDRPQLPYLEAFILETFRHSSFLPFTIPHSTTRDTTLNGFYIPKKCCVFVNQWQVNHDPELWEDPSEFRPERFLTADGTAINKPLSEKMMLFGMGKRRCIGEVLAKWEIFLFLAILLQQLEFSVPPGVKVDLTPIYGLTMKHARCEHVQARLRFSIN", "assay": "CYP450 inhibition in human liver microsomes"}, "[8]": {"molecular_target": "T4, melatonin MT (Homo sapiens, UniProt P48039)", "T4 construct": "expressed in transfected cells; host or cells: CHO-K1", "T4 sequence (P48039 whole entry)": "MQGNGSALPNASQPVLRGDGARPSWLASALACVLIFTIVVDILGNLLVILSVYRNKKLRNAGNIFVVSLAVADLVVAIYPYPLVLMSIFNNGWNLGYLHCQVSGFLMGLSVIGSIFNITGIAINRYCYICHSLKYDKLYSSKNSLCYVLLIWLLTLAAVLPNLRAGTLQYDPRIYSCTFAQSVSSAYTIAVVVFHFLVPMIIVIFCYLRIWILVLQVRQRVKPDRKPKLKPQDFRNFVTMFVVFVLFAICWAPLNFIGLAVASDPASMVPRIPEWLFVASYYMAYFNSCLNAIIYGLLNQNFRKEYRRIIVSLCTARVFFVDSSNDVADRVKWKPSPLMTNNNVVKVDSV", "assay": "Melatonin MT GTPγS binding assay", "assay_type": "biochemical", "conditions": "GTPγS bound relative to 2-iodomelatonin response, CHO-K1 cells; read-out: IC50 against melatonin", "procedure": "[…] CHO-K1 cells Chinese hamster ovary were used in this assay. The final DMSO concentration in the assay was about 0.4%. The assay mixture was incubated at 30° C. for 30 min in an incubation buffer (20 mM HEPES, pH 7.4, 100 mM NaCl, 10 mM MgCl2, 1 mM DTT, and 1 mM EDTA). The assay was quantitated by measuring the amount of [^35S]GTPγS bound relative to 2-iodomelatonin response."}, "[9]": {"molecular_target": "T5, phosphodiesterase PDE5 (Homo sapiens, UniProt O76074)", "T5 construct": "from tissue; host or cells: human platelets", "assay": "Inhibition of phosphodiesterase PDE5", "assay_type": "biochemical", "conditions": "human platelets; read-out: IC50 against phosphodiesterase PDE5", "procedure": "Acta 1976, 429, 485-497 and Nicholson et al., Trends Pharmacol. Sci. 1991, 12, 19-27. Human platelets were used in this assay. The final DMSO concentration in the assay was about 1%. The assay was pre-incubated at 25° C. for 15 min and then incubated at 25° C. for 20 min in an incubation buffer (50 mM Tris-HCl, pH 7.5, 5 mM MgCl2). The assay was quantitated by measuring the amount of [^3H]guanosine."}, "[10]": {"assay": "Pharmacokinetic studies in monkeys", "conditions": "for AUCall / Cl-obs / Cmax: monkeys", "quoted_text": "as §1"}, "[11]": {"conditions": "Racemic administered IV 1 mg/kg, chiral analysis, label = analyte"}, "[12]": {"conditions": "Racemic administered PO 10 mg/kg, chiral analysis, label = analyte"}, "[13]": {"conditions": "compound administered IV 1 mg/kg, analyte = compound administered"}, "[14]": {"conditions": "compound administered PO 10 mg/kg, analyte = compound administered"}}, "note": "pEC50, pIC50: −log10 of the molar value."}
{"smiles": "Cc1cc(Nc2nc([C@@H](O)c3ccc(F)cc3)nc3ccccc23)n[nH]1", "note": "[(S)(+)]", "values": [{"measurement": "pIC50", "setting": "[1]", "value": "< 4.40"}, {"measurement": "pIC50", "setting": "[2]", "value": "< 4.40"}, {"measurement": "enantiomers present in plasma", "setting": "[3]; po", "value": "both enantiomers were present in plasma in almost equal proportions"}, {"measurement": "pEC50", "setting": "[4]", "value": 7.42}, {"measurement": "pIC50", "setting": "[5]", "value": 4.64}, {"measurement": "bioavailability", "setting": "[6]", "value": 89, "unit": "%"}, {"measurement": "pIC50", "setting": "[7]", "value": "> 6.51"}]}
{"smiles": "Cc1cc(Nc2nc(C(O)c3ccc(F)cc3)nc3ccccc23)n[nH]1", "note": "(racemic) [Racemate]", "values": [{"measurement": "pIC50", "setting": "[1]", "value": "< 4.40"}, {"measurement": "pIC50", "setting": "[2]", "value": "< 4.40"}, {"measurement": "pEC50", "setting": "[4]", "value": 7.15}, {"measurement": "pIC50", "setting": "[8]", "value": 5.01}, {"measurement": "pIC50", "setting": "[9]", "value": 5.03}, {"measurement": "pIC50", "setting": "[5]", "value": 4.64}, {"measurement": "pIC50", "setting": "[7]", "value": "> 6.51"}, {"measurement": "bioavailability", "setting": "[10]; male, cynomolgus monkey, in vivo, 10 mg/kg", "value": "> 100", "unit": "%"}, {"measurement": "AUCall", "setting": "[10]; [11]", "value": 2.19, "unit": "µM·h"}, {"measurement": "Cl-obs", "setting": "[10]; [11]", "value": 1.276, "unit": "L/h/kg"}, {"measurement": "AUCall", "setting": "[10]; [12]", "value": 46.20, "unit": "µM·h"}, {"measurement": "Cmax", "setting": "[10]; [12]", "value": 5.76, "unit": "µM"}, {"measurement": "AUCall", "setting": "[10]; [13]", "value": 2.19, "unit": "µM·h"}, {"measurement": "Cl-obs", "setting": "[10]; [13]", "value": 1.276, "unit": "L/h/kg"}, {"measurement": "AUCall", "setting": "[10]; [14]", "value": 46.20, "unit": "µM·h"}, {"measurement": "Cmax", "setting": "[10]; [14]", "value": 5.76, "unit": "µM"}]}
{"smiles": "Cc1cc(Nc2nc([C@H](O)c3ccc(F)cc3)nc3ccccc23)n[nH]1", "note": "[(R)(−)]", "values": [{"measurement": "pIC50", "setting": "[1]", "value": "< 4.40"}, {"measurement": "pIC50", "setting": "[2]", "value": "< 4.40"}, {"measurement": "share of the Cmax and AUC values determined for the racemic compound", "setting": "[3]; male", "value": "over 85%"}, {"measurement": "pEC50", "setting": "[4]", "value": 7.12}, {"measurement": "pIC50", "setting": "[5]", "value": 4.57}, {"measurement": "bioavailability", "setting": "[6]", "value": "> 100", "unit": "%"}, {"measurement": "pIC50", "setting": "[7]", "value": 5.77}]}
